According to paper PMC5218480 (PLoS ONE, 2017):

Tested on: MV-4-11 cells
Assay: Gene expression microarray analysis (Affymetrix PrimeView) and GSEA
Format: cell-based, human
Parameters: RFU PODN (11730768_x_at) / Fold change /veh PODN (11730768_x_at) / RFU LINC00158 (11744669_a_at) / Fold change /veh LINC00158 (11744669_a_at) / RFU DUSP10 (11751237_a_at) / Fold change /veh DUSP10 (11751237_a_at) / RFU ID3 (11757404_x_at) / Fold change /veh ID3 (11757404_x_at) / RFU PLEKHG5 (11737974_s_at) / Fold change /veh PLEKHG5 (11737974_s_at) / RFU LRRC4B (11730491_at) / Fold change /veh LRRC4B (11730491_at) / RFU GIMAP4 (11747438_a_at) / Fold change /veh GIMAP4 (11747438_a_at) / RFU KRT8 (11758183_x_at) / Fold change /veh KRT8 (11758183_x_at) / RFU CNN1 (11734310_a_at) / Fold change /veh CNN1 (11734310_a_at) / RFU VPS37D (11726825_at) / Fold change /veh VPS37D (11726825_at) / RFU C10orf10 (11716522_x_at) / Fold change /veh C10orf10 (11716522_x_at) / RFU KIR2DL2 /// KIR2DL4 /// KIR2DL5A /// KIR2DL5B /// KIR2DS1 /// KIR2DS2 /// KIR2DS3 /// KIR2DS4 /// KIR3DL3 /// KIR3DL3 /// KIR3DS1 (11738374_at) / Fold change /veh KIR2DL2 /// KIR2DL4 /// KIR2DL5A /// KIR2DL5B /// KIR2DS1 /// KIR2DS2 /// KIR2DS3 /// KIR2DS4 /// KIR3DL3 /// KIR3DL3 /// KIR3DS1 (11738374_at) / RFU C1QL1 (11718748_at) / Fold change /veh C1QL1 (11718748_at) / RFU TMPRSS4 (11747572_a_at) / Fold change /veh TMPRSS4 (11747572_a_at) / RFU HAMP (11756126_x_at) / Fold change /veh HAMP (11756126_x_at) / RFU RNFT2 (11725882_a_at) / Fold change /veh RNFT2 (11725882_a_at) / RFU NR4A2 (11747474_a_at) / Fold change /veh NR4A2 (11747474_a_at) / RFU ABCC12 (11746883_a_at) / Fold change /veh ABCC12 (11746883_a_at) / RFU TMEM136 (11760407_x_at) / Fold change /veh TMEM136 (11760407_x_at) / RFU CLDN22 /// WWC2 (11732394_at) / Fold change /veh CLDN22 /// WWC2 (11732394_at) / RFU HLA-DPB1 (11760878_x_at) / Fold change /veh HLA-DPB1 (11760878_x_at) / RFU SPINT1 (11716480_a_at) / Fold change /veh SPINT1 (11716480_a_at) / RFU GAP43 (11754022_s_at) / Fold change /veh GAP43 (11754022_s_at) / RFU A4GNT (11735810_at) / Fold change /veh A4GNT (11735810_at) / RFU PRB3 (11715151_x_at) / Fold change /veh PRB3 (11715151_x_at) / RFU TUBB4B (11761932_at) / Fold change /veh TUBB4B (11761932_at) / RFU CAPN14 (11732068_a_at) / Fold change /veh CAPN14 (11732068_a_at) / RFU TMCC2 (11721928_a_at) / Fold change /veh TMCC2 (11721928_a_at) / RFU IRGQ (11745062_a_at) / Fold change /veh IRGQ (11745062_a_at) / RFU FAM174B (11720279_a_at) / Fold change /veh FAM174B (11720279_a_at) / RFU TMPRSS4 (11748680_a_at) / Fold change /veh TMPRSS4 (11748680_a_at) / RFU FAM212B (11763350_a_at) / Fold change /veh FAM212B (11763350_a_at) / RFU PLEKHG5 (11743358_a_at) / Fold change /veh PLEKHG5 (11743358_a_at) / RFU ZSCAN30 (11745921_a_at) / Fold change /veh ZSCAN30 (11745921_a_at) / RFU CMKLR1 (11741424_a_at) / Fold change /veh CMKLR1 (11741424_a_at) / RFU LOC101060620 /// MAPK8IP1 (11723275_at) / Fold change /veh LOC101060620 /// MAPK8IP1 (11723275_at) / RFU SPTSSB (11747773_x_at) / Fold change /veh SPTSSB (11747773_x_at) / RFU PRSS12 (11739890_at) / Fold change /veh PRSS12 (11739890_at) / RFU BIN1 (11741810_x_at) / Fold change /veh BIN1 (11741810_x_at) / RFU WNT11 (11732464_a_at) / Fold change /veh WNT11 (11732464_a_at) / RFU C10orf10 (11716521_a_at) / Fold change /veh C10orf10 (11716521_a_at) / RFU C5orf56 (11738089_at) / Fold change /veh C5orf56 (11738089_at) / RFU CYB561 (11721691_x_at) / Fold change /veh CYB561 (11721691_x_at) / RFU ANKRD19P (11752326_a_at) / Fold change /veh ANKRD19P (11752326_a_at) / RFU OR2T12 /// OR2T33 /// OR2T8 (11738714_s_at) / Fold change /veh OR2T12 /// OR2T33 /// OR2T8 (11738714_s_at) / RFU VCAN (11748164_a_at) / Fold change /veh VCAN (11748164_a_at) / RFU JSRP1 (11732532_at) / Fold change /veh JSRP1 (11732532_at) / RFU KRTAP10-11 (11738290_x_at) / Fold change /veh KRTAP10-11 (11738290_x_at) / RFU MYO3A (11730013_a_at) / Fold change /veh MYO3A (11730013_a_at) / RFU EBF3 (11725865_a_at) / Fold change /veh EBF3 (11725865_a_at) / RFU CAMK2N1 (11719241_x_at) / Fold change /veh CAMK2N1 (11719241_x_at) / RFU C5orf56 (11738088_a_at) / Fold change /veh C5orf56 (11738088_a_at) / RFU OLFML3 (11715873_a_at) / Fold change /veh OLFML3 (11715873_a_at) / RFU LOC100653217 /// NTM (11731650_a_at) / Fold change /veh LOC100653217 /// NTM (11731650_a_at) / RFU MAPK11 (11762145_a_at) / Fold change /veh MAPK11 (11762145_a_at) / RFU FIZ1 (11724087_x_at) / Fold change /veh FIZ1 (11724087_x_at) / RFU OASL (11726364_x_at) / Fold change /veh OASL (11726364_x_at) / RFU SOX15 (11748057_x_at) / Fold change /veh SOX15 (11748057_x_at) / RFU CD79A (11719716_a_at) / Fold change /veh CD79A (11719716_a_at) / RFU HIST1H1D (11736915_at) / Fold change /veh HIST1H1D (11736915_at) / RFU CASKIN2 (11723855_a_at) / Fold change /veh CASKIN2 (11723855_a_at) / RFU LOC730098 (11760151_x_at) / Fold change /veh LOC730098 (11760151_x_at) / RFU OR4N2 (11742367_at) / Fold change /veh OR4N2 (11742367_at) / RFU PRRT2 (11749266_a_at) / Fold change /veh PRRT2 (11749266_a_at) / RFU SNX32 (11753110_a_at) / Fold change /veh SNX32 (11753110_a_at) / RFU CDHR5 (11726645_a_at) / Fold change /veh CDHR5 (11726645_a_at) / RFU RCAN1 (11760418_a_at) / Fold change /veh RCAN1 (11760418_a_at) / RFU FAM167A (11723789_a_at) / Fold change /veh FAM167A (11723789_a_at) / RFU FAM26E (11764081_at) / Fold change /veh FAM26E (11764081_at) / RFU ISYNA1 (11749810_s_at) / Fold change /veh ISYNA1 (11749810_s_at) / RFU ACY1 (11761880_at) / Fold change /veh ACY1 (11761880_at) / RFU 11764098_at / Fold change /veh 11764098_at / RFU SAMD14 (11745864_x_at) / Fold change /veh SAMD14 (11745864_x_at) / RFU NPB (11741838_a_at) / Fold change /veh NPB (11741838_a_at) / RFU TMPRSS6 (11731388_a_at) / Fold change /veh TMPRSS6 (11731388_a_at) / RFU KRTAP10-2 (11738614_at) / Fold change /veh KRTAP10-2 (11738614_at) / RFU ARHGAP8 /// PRR5-ARHGAP8 (11727945_x_at) / Fold change /veh ARHGAP8 /// PRR5-ARHGAP8 (11727945_x_at) / RFU KRTAP5-7 /// NADSYN1 (11734609_at) / Fold change /veh KRTAP5-7 /// NADSYN1 (11734609_at) / RFU RASL12 (11751679_a_at) / Fold change /veh RASL12 (11751679_a_at) / RFU CDKN2B (11736163_a_at) / Fold change /veh CDKN2B (11736163_a_at) / RFU PRF1 (11729649_at) / Fold change /veh PRF1 (11729649_at) / RFU, ZNF638 /// ZNF638-IT1 / Fold change vs veh, ZNF638 /// ZNF638-IT1 / RFU, PANK3 / Fold change vs veh, PANK3 / RFU, SH3YL1 / Fold change vs veh, SH3YL1 / RFU, ZEB2 / Fold change vs veh, ZEB2 / RFU, NRIP1 / Fold change vs veh, NRIP1 / RFU, PTTG1IP / Fold change vs veh, PTTG1IP / RFU, CAPN2 / Fold change vs veh, CAPN2 / RFU, MED14 / Fold change vs veh, MED14 / RFU, SNORA58 / Fold change vs veh, SNORA58 / RFU, C1orf63 / Fold change vs veh, C1orf63 / RFU, LRRFIP1 / Fold change vs veh, LRRFIP1 / RFU, NDUFAF7 / Fold change vs veh, NDUFAF7 / RFU, SLC12A2 / Fold change vs veh, SLC12A2 / RFU, IBTK / Fold change vs veh, IBTK / RFU, ESF1 / Fold change vs veh, ESF1 / Fold change vs veh, TMEM50B / RFU, TAOK1 / Fold change vs veh, TAOK1 / RFU, ACBD3 / Fold change vs veh, ACBD3 / RFU, TMA16 / Fold change vs veh, TMA16 / RFU, RWDD3 / Fold change vs veh, RWDD3 / RFU, BCAT1 / Fold change vs veh, BCAT1 / RFU, EDEM3 / Fold change vs veh, EDEM3 / RFU, TMEM33 / Fold change vs veh, TMEM33 / RFU, WDR75 / Fold change vs veh, WDR75 / RFU, AHCTF1 / Fold change vs veh, AHCTF1 / RFU, TFRC / Fold change vs veh, TFRC / RFU, ZDHHC17 / Fold change vs veh, ZDHHC17 / RFU, NOM1 / Fold change vs veh, NOM1 / RFU, ARL8B / Fold change vs veh, ARL8B / RFU, ZBTB11 / Fold change vs veh, ZBTB11 / RFU, TAMM41 / Fold change vs veh, TAMM41 / RFU, KIAA1704 /// LOC100996395 / Fold change vs veh, KIAA1704 /// LOC100996395 / RFU, ING1 / Fold change vs veh, ING1 / RFU, TRMT61B / Fold change vs veh, TRMT61B / RFU, FUBP3 / Fold change vs veh, FUBP3 / RFU, TP53 / Fold change vs veh, TP53 / RFU, TNKS2 / Fold change vs veh, TNKS2 / RFU, ZFP14 / Fold change vs veh, ZFP14 / RFU, ACTR2 / Fold change vs veh, ACTR2 / RFU, PPP3R1 / Fold change vs veh, PPP3R1 / RFU, PIK3R1 / Fold change vs veh, PIK3R1 / RFU, HNRNPA1 / Fold change vs veh, HNRNPA1 / RFU, RNF170 / Fold change vs veh, RNF170 / RFU, ZNF28 / Fold change vs veh, ZNF28 / RFU, RNGTT / Fold change vs veh, RNGTT / RFU, OGT / Fold change vs veh, OGT / RFU, BRD1 / Fold change vs veh, BRD1 / RFU, MARS / Fold change vs veh, MARS / RFU, ZNF655 / Fold change vs veh, ZNF655 / RFU, FAHD1 / Fold change vs veh, FAHD1 / RFU, BDP1 / Fold change vs veh, BDP1 / RFU, LRRCC1 / Fold change vs veh, LRRCC1 / RFU, ARID1A / Fold change vs veh, ARID1A / RFU, ZNF146 / Fold change vs veh, ZNF146 / RFU, ZNF330 / Fold change vs veh, ZNF330 / RFU, GPN3 / Fold change vs veh, GPN3 / RFU, C9orf123 / Fold change vs veh, C9orf123 / RFU, N4BP2L2 / Fold change vs veh, N4BP2L2 / RFU, ARFIP1 / Fold change vs veh, ARFIP1 / RFU, FAM179B / Fold change vs veh, FAM179B / RFU, BCL10 / Fold change vs veh, BCL10 / RFU, UHRF1BP1L / Fold change vs veh, UHRF1BP1L / RFU, BET1 / Fold change vs veh, BET1 / RFU, CNOT2 / Fold change vs veh, CNOT2 / RFU, ZNF268 / Fold change vs veh, ZNF268 / Fold change vs veh, ZNF507 / RFU, DGCR2 / Fold change vs veh, DGCR2 / RFU, WDSUB1 / Fold change vs veh, WDSUB1 / Fold change vs veh, HSP90B1 /// MIR3652 / RFU, ADSS / Fold change vs veh, ADSS / RFU, GK / Fold change vs veh, GK / RFU, ZNF148 / Fold change vs veh, ZNF148 / RFU, TAF9 / Fold change vs veh, TAF9 / RFU, SLC1A5 / Fold change vs veh, SLC1A5 / RFU, SLMO2 / Fold change vs veh, SLMO2 / RFU, ABCC4 / Fold change vs veh, ABCC4 / RFU, LOC101060439 /// RAP1B / Fold change vs veh, LOC101060439 /// RAP1B / RFU, RFX7 / Fold change vs veh, RFX7 / RFU, GTPBP10 / Fold change vs veh, GTPBP10 / RFU, CNEP1R1 / Fold change vs veh, CNEP1R1 / RFU, BIVM-ERCC5 /// ERCC5 / Fold change vs veh, BIVM-ERCC5 /// ERCC5 / RFU, ILF3 / Fold change vs veh, ILF3 / RFU 11762660_at / Fold change /veh 11762660_at / RFU VCAN (11757783_s_at) / Fold change /veh VCAN (11757783_s_at) / RFU DDX43 (11728927_at) / Fold change /veh DDX43 (11728927_at) / RFU KRT8 (11758188_x_at) / Fold change /veh KRT8 (11758188_x_at) / RFU NKD1 (11759106_at) / Fold change /veh NKD1 (11759106_at) / RFU SRD5A1 (11742802_a_at) / Fold change /veh SRD5A1 (11742802_a_at) / RFU TPSAB1 /// TPSB2 (11721975_s_at) / Fold change /veh TPSAB1 /// TPSB2 (11721975_s_at) / RFU GSTM3 (11746129_a_at) / Fold change /veh GSTM3 (11746129_a_at) / RFU IL23R (11737362_x_at) / Fold change /veh IL23R (11737362_x_at) / RFU TMEM51 (11727254_a_at) / Fold change /veh TMEM51 (11727254_a_at) / RFU PIWIL2 (11732686_x_at) / Fold change /veh PIWIL2 (11732686_x_at) / RFU ORM1 (11744905_x_at) / Fold change /veh ORM1 (11744905_x_at) / RFU CCDC152 (11743942_at) / Fold change /veh CCDC152 (11743942_at) / RFU ECM1 (11717891_a_at) / Fold change /veh ECM1 (11717891_a_at) / RFU IL23R (11748794_a_at) / Fold change /veh IL23R (11748794_a_at) / RFU TNFAIP8L3 (11732012_x_at) / Fold change /veh TNFAIP8L3 (11732012_x_at) / RFU MBOAT4 (11741988_at) / Fold change /veh MBOAT4 (11741988_at) / RFU 11764193_at / Fold change /veh 11764193_at / RFU TMEM53 (11763286_at) / Fold change /veh TMEM53 (11763286_at) / RFU MAGEB2 (11727129_at) / Fold change /veh MAGEB2 (11727129_at) / RFU TMEM200A (11744735_a_at) / Fold change /veh TMEM200A (11744735_a_at) / RFU CCDC152 (11751479_a_at) / Fold change /veh CCDC152 (11751479_a_at) / RFU FAM211A (11726209_a_at) / Fold change /veh FAM211A (11726209_a_at) / RFU RGS16 (11746705_a_at) / Fold change /veh RGS16 (11746705_a_at) / RFU VCAN (11755009_s_at) / Fold change /veh VCAN (11755009_s_at) / RFU RHOB (11743442_s_at) / Fold change /veh RHOB (11743442_s_at) / RFU RGS16 (11720943_a_at) / Fold change /veh RGS16 (11720943_a_at) / RFU RGS16 (11720944_at) / Fold change /veh RGS16 (11720944_at) / RFU, VPS4B / Fold change vs veh, VPS4B / RFU, CREB1 / Fold change vs veh, CREB1 / RFU, DNAJC13 / Fold change vs veh, DNAJC13 / RFU, GNAQ / Fold change vs veh, GNAQ / RFU, CDK5R1 / Fold change vs veh, CDK5R1 / RFU, ZRANB3 / Fold change vs veh, ZRANB3 / RFU, CUL4A / Fold change vs veh, CUL4A / RFU, CCNY / Fold change vs veh, CCNY / RFU, UFL1 / Fold change vs veh, UFL1 / RFU, COG3 / Fold change vs veh, COG3 / RFU, DIAPH2 / Fold change vs veh, DIAPH2 / RFU, SKA2 / Fold change vs veh, SKA2 / RFU, AFF3 / Fold change vs veh, AFF3 / RFU, LMF1 / Fold change vs veh, LMF1 / RFU, IPO11 / Fold change vs veh, IPO11 / RFU, DFFB / Fold change vs veh, DFFB / RFU, FOXP1 / Fold change vs veh, FOXP1 / RFU, CARD8 / Fold change vs veh, CARD8 / RFU, STRN3 / Fold change vs veh, STRN3 / RFU, ADK / Fold change vs veh, ADK / RFU, RASSF2 / Fold change vs veh, RASSF2 / RFU, WIPF1 / Fold change vs veh, WIPF1 / RFU, LARP1B / Fold change vs veh, LARP1B / RFU, RASA1 / Fold change vs veh, RASA1 / RFU, RB1 / Fold change vs veh, RB1 / RFU, PPFIA1 / Fold change vs veh, PPFIA1 / RFU, MAT2A / Fold change vs veh, MAT2A / RFU, CCT5 / Fold change vs veh, CCT5 / RFU, WDR92 / Fold change vs veh, WDR92 / RFU, CUX1 / Fold change vs veh, CUX1 / RFU, TTC7A / Fold change vs veh, TTC7A / RFU, TMEM135 / Fold change vs veh, TMEM135 / RFU, DEPTOR / Fold change vs veh, DEPTOR / RFU, CPM / Fold change vs veh, CPM / RFU, DNAJB6 / Fold change vs veh, DNAJB6 / RFU, CACNA2D3 / Fold change vs veh, CACNA2D3 / RFU, DTX4 / Fold change vs veh, DTX4 / RFU, TFCP2 / Fold change vs veh, TFCP2 / RFU, GMCL1 /// GMCL1P1 / Fold change vs veh, GMCL1 /// GMCL1P1 / RFU, AEBP2 / Fold change vs veh, AEBP2 / RFU, SNHG1 /// SNORD22 /// SNORD25 /// SNORD26 /// SNORD27 /// SNORD28 /// SNORD29 /// SNORD31 / Fold change vs veh, SNHG1 /// SNORD22 /// SNORD25 /// SNORD26 /// SNORD27 /// SNORD28 /// SNORD29 /// SNORD31 / Fold change (Aza/veh), C12orf56 (ProbeSet 11735607_a_at) / Fold change (ACY-1035/veh), C12orf56 (ProbeSet 11735607_a_at) / Fold change (Aza/veh), FGFR1OP (ProbeSet 11751329_s_at) / Fold change (ACY-1035/veh), FGFR1OP (ProbeSet 11751329_s_at) / Fold change (Aza/veh), VPS36 (ProbeSet 11739960_a_at) / Fold change (ACY-1035/veh), VPS36 (ProbeSet 11739960_a_at) / RFU SYPL1 (11715823_x_at) / Fold change /veh SYPL1 (11715823_x_at) / RFU IGFBP7 (11715501_s_at) / Fold change /veh IGFBP7 (11715501_s_at) / RFU REEP3 (11722064_at) / Fold change /veh REEP3 (11722064_at) / RFU IGLL1 (11728026_x_at) / Fold change /veh IGLL1 (11728026_x_at): dose or concentration left out as unconfirmed
Details: MV-4-11 cells, 48 hours

## Nc1ncn([C@@H]2O[C@H](CO)[C@@H](O)[C@H]2O)c(=O)n1 [azacitidine]
  Fold change /veh IGFBP7 (11715501_s_at): 0.50
